Legend:
NHE9* [1] = target: T1, NHE9* (Equus caballus, UniProt F7B113); assay: GFP-based thermal shift (FSEC-TS); type: binding; conditions: 1% DDM, 1% octyl glucoside, 10 min heating; lipid 1 mg/ml in the screen
T1 construct: gene SLC9A9; residues 8-575 (8-574 elsewhere) of 644, C-terminal tail truncated; GFP-TwinStrep-His8 fusion kept for thermal shift; S. cerevisiae FGY217; purified homodimer
T1 sequence (F7B113 8-575): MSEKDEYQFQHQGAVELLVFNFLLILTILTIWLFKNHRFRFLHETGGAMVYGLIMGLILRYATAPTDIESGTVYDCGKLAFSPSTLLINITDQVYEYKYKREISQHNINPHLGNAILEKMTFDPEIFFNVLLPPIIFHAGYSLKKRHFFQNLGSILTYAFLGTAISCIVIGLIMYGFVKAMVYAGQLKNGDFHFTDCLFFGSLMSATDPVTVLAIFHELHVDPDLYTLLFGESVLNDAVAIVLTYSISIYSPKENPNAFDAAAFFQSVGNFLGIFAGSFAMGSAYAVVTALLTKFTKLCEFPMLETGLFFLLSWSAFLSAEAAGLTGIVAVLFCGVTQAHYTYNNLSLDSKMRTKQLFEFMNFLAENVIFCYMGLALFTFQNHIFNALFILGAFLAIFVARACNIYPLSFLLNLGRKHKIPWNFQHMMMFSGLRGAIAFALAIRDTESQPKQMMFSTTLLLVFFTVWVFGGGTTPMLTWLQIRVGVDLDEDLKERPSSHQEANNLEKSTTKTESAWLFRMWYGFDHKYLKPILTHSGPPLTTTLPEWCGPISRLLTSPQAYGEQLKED
From the text: GFP-based thermal shift (FSEC-TS) on NHE9* | In the presence of either PIP2 or PIP3, the average melting temperature (ΔT m)

[2] = target: horse NHE9* (residues 8-575 out of 644), TEV-cleaved (Equus caballus (horse)); assay: native MS; 100 mM ammonium acetate pH 7.0, 0.02% (w/v) DDM; NHE9* purified with or without added brain lipids
NHE9* [3] = target: T2, NHE9* (Equus caballus, UniProt F7B113, K85Q/K105Q/K107Q); assay: GFP-based thermal shift (FSEC-TS); type: binding; conditions: 1% DDM, 1% octyl glucoside, 10 min heating; lipid 1 mg/ml in the screen; TM2-TM3 loop mutant
T2 construct: gene SLC9A9; residues 8-575 (8-574 elsewhere) of 644, C-terminal tail truncated; GFP-TwinStrep-His8 fusion kept for thermal shift; S. cerevisiae FGY217; purified homodimer
T2 sequence (F7B113 8-575 K85Q/K105Q/K107Q): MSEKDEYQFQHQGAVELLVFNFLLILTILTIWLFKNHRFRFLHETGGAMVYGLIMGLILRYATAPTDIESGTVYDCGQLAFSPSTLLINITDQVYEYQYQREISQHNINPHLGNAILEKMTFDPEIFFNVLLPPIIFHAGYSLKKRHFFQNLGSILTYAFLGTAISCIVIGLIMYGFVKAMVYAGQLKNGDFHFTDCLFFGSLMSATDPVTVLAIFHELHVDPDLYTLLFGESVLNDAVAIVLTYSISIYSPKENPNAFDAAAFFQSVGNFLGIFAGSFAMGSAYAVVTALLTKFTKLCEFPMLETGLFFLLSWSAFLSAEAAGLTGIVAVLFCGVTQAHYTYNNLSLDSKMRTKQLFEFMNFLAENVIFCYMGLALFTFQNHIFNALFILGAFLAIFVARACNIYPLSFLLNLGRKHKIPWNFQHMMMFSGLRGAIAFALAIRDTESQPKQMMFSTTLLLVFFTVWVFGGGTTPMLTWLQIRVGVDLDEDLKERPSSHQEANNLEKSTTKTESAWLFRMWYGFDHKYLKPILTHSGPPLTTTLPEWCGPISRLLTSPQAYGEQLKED

NHE9 ΔCTD = target: T3, NHE9 ΔCTD (Equus caballus, UniProt F7B113); assay: GFP-based thermal shift (FSEC-TS); type: binding; conditions: 1% DDM, 1% octyl glucoside, 10 min heating; lipid 1 mg/ml in the screen
T3 construct: gene SLC9A9; residues 8-481 of 644, whole C-terminal regulatory domain removed; GFP-TwinStrep-His8 fusion for thermal shift; S. cerevisiae FGY217; purified homodimer
T3 sequence (F7B113 8-481): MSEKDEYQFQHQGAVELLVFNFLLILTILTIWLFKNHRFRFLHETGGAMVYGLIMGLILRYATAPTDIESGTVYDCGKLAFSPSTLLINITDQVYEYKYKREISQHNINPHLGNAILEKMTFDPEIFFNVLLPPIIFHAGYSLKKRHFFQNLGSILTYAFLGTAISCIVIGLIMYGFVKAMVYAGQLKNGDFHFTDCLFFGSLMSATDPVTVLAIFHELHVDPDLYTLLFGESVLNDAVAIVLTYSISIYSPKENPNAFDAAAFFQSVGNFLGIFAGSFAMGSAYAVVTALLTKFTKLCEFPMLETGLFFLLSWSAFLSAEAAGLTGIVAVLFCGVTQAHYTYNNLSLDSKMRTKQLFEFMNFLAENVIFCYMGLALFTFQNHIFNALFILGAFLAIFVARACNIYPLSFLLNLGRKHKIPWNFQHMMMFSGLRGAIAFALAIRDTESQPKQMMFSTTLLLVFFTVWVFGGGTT

[4] = target: the molecule itself; assay: cryo-EM structure; purified protein in LMNG/CHS, 20 mM Tris-HCl pH 7.5, 150 mM NaCl; brain lipids added during purification; no symmetry imposed (C1)

## CCCCCCCCCCCCCCCC(=O)OC[C@H](COP(=O)(O)O[C@H]1[C@H](O)[C@@H](OP(=O)(O)O)[C@H](OP(=O)(O)O)[C@@H](OP(=O)(O)O)[C@H]1O)OC(=O)CCCCCCCCCCCCCCC [PIP3, phosphatidylinositol tris‐3,4,5‐phosphate,1,2‐dipalmitoyl]
NHE9* [1]
  ΔTm: 9 °C

## horse NHE9* (residues 8-575 out of 644), TEV-cleaved (domain or fragment)
[2]
  stoichiometry N: 2

## CCCCCCCC(=O)OC[C@H](COP(=O)(O)O[C@@H]1[C@H](O)[C@H](O)[C@@H](OP(=O)(O)O)[C@H](OP(=O)(O)O)[C@H]1O)OC(=O)CCCCCCC [PIP2, phosphatidylinositol bis‐4,5‐phosphate,1,2‐dioctanoyl]
NHE9* [3]
  ΔTm: a triple lysine‐to‐glutamine loop mutant markedly reduced PIP2‐mediated stabilization
NHE9 ΔCTD
  ΔTm: the ΔCTD construct was also analysed, yet additional stabilization upon PIP2 addition was still observed
NHE9* [1]
  ΔTm: 9 °C

B1: horse NHE9 ΔCTD (residues 8-481 out of 644) (domain or fragment, Equus caballus (horse), UniProt F7B113 8-481, looked up)
chain: MSEKDEYQFQHQGAVELLVFNFLLILTILTIWLFKNHRFRFLHETGGAMVYGLIMGLILRYATAPTDIESGTVYDCGKLAFSPSTLLINITDQVYEYKYKREISQHNINPHLGNAILEKMTFDPEIFFNVLLPPIIFHAGYSLKKRHFFQNLGSILTYAFLGTAISCIVIGLIMYGFVKAMVYAGQLKNGDFHFTDCLFFGSLMSATDPVTVLAIFHELHVDPDLYTLLFGESVLNDAVAIVLTYSISIYSPKENPNAFDAAAFFQSVGNFLGIFAGSFAMGSAYAVVTALLTKFTKLCEFPMLETGLFFLLSWSAFLSAEAAGLTGIVAVLFCGVTQAHYTYNNLSLDSKMRTKQLFEFMNFLAENVIFCYMGLALFTFQNHIFNALFILGAFLAIFVARACNIYPLSFLLNLGRKHKIPWNFQHMMMFSGLRGAIAFALAIRDTESQPKQMMFSTTLLLVFFTVWVFGGGTT
notes: horse (Equus caballus) NHE9 (SLC9A9), residues 8-481 out of 644, lacking the entire C-terminal regulatory domain; C-terminal residues left after TEV cleavage are probably as in NHE9* (surmise); also called ΔCTD construct; source: S. cerevisiae FGY217, purified (Strep-Tactin XT, TEV digestion, SEC); not shown: GFP, C-terminal, cleaved; TwinStrep, C-terminal, cleaved; His8, C-terminal, cleaved
[4]
  binding result: binds
